The structures appear in SMILES notation. Counter-ions that a name gives are not always drawn.

Data on four compounds can be found in patent publication US6352976B1, “Selective inhibitors of MMP-12” (Aventis Pharmaceuticals Inc., priority 1998, dated 2002).

The target in assay [1] is T1, MMP-1 (interstitial collagenase) (Homo sapiens, UniProt P03956).
T1 construct: The active MMP-1 was obtained by treatment of proMMP-1 with trypsin; endogenous in cells; host or cells: human rheumatoid synovial fibroblasts stimulated with macrophage-conditioned medium; secreted proenzyme purified from culture medium
T1 sequence (P03956 100-469): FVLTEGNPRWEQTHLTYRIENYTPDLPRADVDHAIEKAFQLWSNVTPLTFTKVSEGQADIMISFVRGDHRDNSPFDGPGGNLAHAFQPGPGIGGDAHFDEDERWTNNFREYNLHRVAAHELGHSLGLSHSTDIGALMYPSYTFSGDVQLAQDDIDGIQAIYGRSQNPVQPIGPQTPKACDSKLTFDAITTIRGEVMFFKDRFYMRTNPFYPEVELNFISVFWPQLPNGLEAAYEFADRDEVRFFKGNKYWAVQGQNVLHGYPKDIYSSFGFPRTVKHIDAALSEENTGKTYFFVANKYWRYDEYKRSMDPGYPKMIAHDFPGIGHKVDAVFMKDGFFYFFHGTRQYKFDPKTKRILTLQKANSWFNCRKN
The assay can be described thus: Determination of inhibition constant (Ki) for MMP-1, fluorogenic substrate. It counts as biochemical. The conditions noted are these: pH 7.6. How it is done: ProMMP-1 (EC3.4.24.7; interstitial collagenase) was purified from culture medium of human rheumatoid synovial fibroblasts stimulated with macrophage-conditioned medium according to Okada, Y. et al., J. Biol. Chem. 261, 14245-14255 (1986). The active MMP-1 was obtained by treatment of proMMP-1 with trypsin (5 μg/mL) at 37° C. for 30 minutes, followed by addition of soybean trypsin inhibitor (50 μg/mL).
The activated MMP-1 is assayed using a fluorogenic substrate, Mca-Pro-Leu-Gly-Leu-Dpa-Ala-Arg-NH2, Knight, C. G. et al., FEBS Lett. 296, 263-266 (1992), at 37° C. in 2.0 mL of assay buffer containing 50 mM Tris, pH 7.6, 0.2 M sodium chloride, 50 mM calcium chloride, and 0.02% Brij-35. The increase in fluorescence due to cleavage of Gly-Leu peptide bond by MMP-3 was monitored with Perkin-Elmer LS50B Fluorimeter (λex 328 nm, λem 393 nm, excitation slit 2.5, emission slit 10). Substrate and inhibitor stock solutions were made in DMF. For determination of Ki values for MMP-1 inhibitors, a series of intermediate inhibitor solutions were prepared in DMF and 1 or 2 μL of the diluted inhibitor solution was mixed with 1 μL of 2 mM substrate solution in DMF in a quartz cuvette containing 2 mL of assay buffer. The enzyme (10 μL of 0.2 μM […] dilution in assay buffer) was added at the last to start the reaction. For routine measurement of a Ki value for a reversible, competitive inhibitor, the initial rates in the presence of at least four inhibitor concentrations (two concentrations above Ki and two concentrations below Ki) were measured using [S]=1 μM (<<Km) and [MMP-1]=0.8 nM. Under these conditions, the measured Ki, app is close to true Ki.
The Ki for a competitive inhibitor is calculated using: v0/vi=(1+[I]/Ki, app) and Ki=Ki, app/(1+[S]/Km), where v0 is the initial rate in the absence of inhibitor, vi is the initial rate in the presence of inhibitor at the concentration of [I], [S] is the substrate concentration, and Km is the Michaelis constant. If slow binding is observed (i.e. if the approach to the binding equilibrium is slow), the final steady-state rate rather than the initial rate is taken as vi.

In assay [2] the target is T2, MMP-12 (macrophage metalloelastase) (Homo sapiens, UniProt P39900).
T2 construct: made in house
T2 sequence (P39900 106-263 limits assumed): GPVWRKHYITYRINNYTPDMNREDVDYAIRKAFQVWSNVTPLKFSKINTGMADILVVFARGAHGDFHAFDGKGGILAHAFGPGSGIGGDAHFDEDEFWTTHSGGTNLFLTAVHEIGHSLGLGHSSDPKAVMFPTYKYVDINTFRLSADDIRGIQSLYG
The experiment in a line: Determination of the inhibition constant (Ki) for MMP-12, fluorogenic substrate. In kind it is biochemical. Conditions: pH 7.6. As to the method: MMP-12 (EC3.4.24.65) was cloned, expressed and purified according to Shapiro, S. D. et al., J Biol. Chem. 268, 23824-23829 (1993). […] Aliquots of MMP-12 were stored at −70° C.
The potency of inhibitors of MMP-12 was measured using either quartz cuvettes or microtiter plates. The activity of MMP-12 was measured using a fluorogenic substrate, Mca-Pro-Leu-Gly-Leu-Dpa-Ala-Arg-NH2 SEQ ID NO1, Knight, C. G. et al., FEBS Lett. 296,263-266 (1992), at 25° C. in an assay buffer containing 50 mM Tris, pH 7.6, 0.2 M sodium chloride, 50 mM calcium chloride, and 0.02% Brij-35. The increase in fluorescence due to cleavage of Gly-Leu peptide bond by MMP-12 was monitored with a Perkin-Elmer LS50B Fluorimeter (λex 328 nm, λem 393 nm, excitation slit 2.5, emission slit 10) for the cuvette assay and with a Molecular Devices Fmax fluorescence plate reader (λex 320 nm, λem 405 nm) for the microtiter plate assay. Substrate and inhibitor stock solutions were made in N,N-dimethylformamide (DMF) and 0.1% HCl-DMF, respectively.
Ki values were determined using the cuvette method by preparing a series of intermediate inhibitors solutions in 0.1% HCl-DMF and mixing the inhibitor with substrate (final concentration 2 μM) in a quartz cuvette containing 2 ml of assay buffer. MMP-12 was added to start the reaction at a concentration of 2 nM and progress curves were generated. For routine measurement of a Ki value for a reversible competitive inhibitor, the initial rates in the presence of at least four inhibitor concentrations (two concentrations above and two concentrations below the Ki) were measured [S]=2 μM (<<Km) and [MMP-12]=2 nM. Under these conditions, the measured Ki,app is close to the true Ki.
Ki values were determined using the microtiter plate method in a manner similar to that described for the cuvette method with some modifications. Four different inhibitor concentrations (50 μl in assay buffer) of each compound were added to separate wells of a microtiter plate and substrate was added (100 μl) to get a final concentration of […]. MMP-12 was added to a final concentration of 2 nM (50 μl) to start the reaction. Cleavage of substrate was recorded every 30 seconds for 30 minutes and progress curves were generated.
The Ki for a competitive inhibitor was calculated using: V0/Vi=(1+[I]/Ki,app) and Ki=Ki,app/(1+[S]/Km), where V0 is the initial rate in the absence of inhibitor, Vi is the initial rate in the presence of inhibitor at the concentration of [I], [S] is the substrate concentration, and Km is the Michaelis constant. If slow binding is observed (i.e. if the approach to the binding equilibrium is slow), the final steady-state rate rather than the initial rate is taken as Vi.

The mark [3] stands for this setting: Table 1, Mca-Pro-Leu-Gly-Leu-Dpa-Ala-Arg-NH2, 37° C.
The mark [4] stands for this setting: Table 1, Mca-Pro-Leu-Gly-Leu-Dpa-Ala-Arg-NH2, 25° C.

As to `CC(C)C[C@H](NC(=O)[C@@H](S)C(C)C)C(=O)N[C@@H](Cc1ccccc1)C(=O)O` [Example 3, (S)-2-Mercapto-3-methylbutyroyl-(L)-leucyl-(L)-phenylalanine], the Ki in assay [1] (setting [3]) was 518 nM; in assay [2] (setting [4]), 14 nM.
As for `CSCC[C@H](NC(=O)[C@@H](S)C(C)C)C(=O)N[C@@H](Cc1ccccc1)C(=O)O` [Example 4, (S)-2-Mercapto-3-methylbutyroyl-(L)-methionyl-(L)-phenylalanine], the Ki stood at 153 nM in assay [1] (setting [3]) and 14 nM in assay [2] (setting [4]).
Regarding `CC(C)[C@H](S)C(=O)N[C@@H](CCCCN)C(=O)N[C@@H](Cc1ccccc1)C(=O)O` [Example 5, (S)-2-Mercapto-3-methylbutyroyl-(L)-lysyl-(L)-phenylalanine trifluoroacetic acid salt], the Ki was 3910 nM in assay [1] (setting [3]) and 151 nM in assay [2] (setting [4]).
Take `CNC(=O)[C@H](Cc1ccccc1)NC(=O)[C@H](CCc1ccccc1)NC(=O)C(S)C(C)C` (stereo partly drawn) [Example 7, (S)-2-Mercapto-3-methylbutyroyl-(L)-homo-phenylalanyl-(L)-phenylalanine N-methyl amide, reference compound]: the Ki in assay [1] (Table 2 (comparative), method of Example A, 37° C.) was 465 nM; in assay [2] (Table 2 (comparative), method of Example D, 25° C.), 0.6 nM.
